Each structure is given as a SMILES string. Where two headings read alike, the source gives them in different places.

One test relates to H4 mCherry-GFP-LC3 cells. Description: Test 3: Autophagy assay (mCherry-GFP-LC3 reporter, high-content imaging). In kind it is cell-based, human. The conditions noted are these: 16-18 h treatment, mCherry-positive LC3 puncta/cell. The text has this: Autophagy is a catabolic pathway that degrades bulk cytosol in lysosomal compartments enabling amino acids and fatty acids to be recycled. One of the key regulators of autophagy is the mammalian target of rapamycin (mTOR), a conserved serine/threonine kinase which suppresses the initiation of the autophagic process when nutrients, growth factors and energy are available. To quantify autophagy induction by mTOR inhibitors, we use a mCherry-GFP-LC3 reporter which is amenable to retroviral delivery into mammalian cells, stable expression and analysis by fluorescence microscopy.
The amino acid sequence of the mCherry-GFP-LC3 construct is shown below (SEQ ID NO: 1). The mCherry sequence is underlined, GFP sequence is in bold and LC3A sequence is boxed.
Described hereinafter is an imaging protocol and image recognition algorithm to visualize and measure changes in the autophagic pathway.
Quantification of Autophagy Using High-Content Imaging and Analysis
• 1. Day 0: Cell plating. Subconfluent H4 mCherry-GFP-LC3 cells are harvested by trypsinization, resuspended in growth medium, and counted (H4 cells: Human neuroglioma cell line (ATCC)). A cell suspension of 66′000 cells/mL is prepared and 30 μL are added into the wells of a 384-well plate using an electronic multichannel pipette. […] The cell plates are briefly spun down and placed at 37° C. and 5% CO2. • 2. Day 1: Compound treatment. Compound dose responses are prepared in DMSO. The dose responses are then diluted 1:50 in medium. 10 ul of the diluted compound is added to 30 ul of cells, yielding a final 1:200 dilution of the original compound and final of 0.5% DMSO. Compound-treatments are performed in triplicates. The 384-well plates are placed at 37° C. and 5% CO2. Compound treatment is performed for 16-18 h (see Note 1). • 3. Day 2: Cell fixation. Cells are fixed by adding 10 μL/well 5× concentrated Mirsky's fixative supplemented with 25 μg/mL Hoechst33342. […] The 384-well plate is briefly spun down and incubated for 1 h at room temperature. Cells are then washed using a 384-well plate washer using a protocol which aspirates the volume down to 10 μL/well before dispensing 100 μL/well 1×TBS. Aspiration and dispensing steps are repeated 4 times and a final volume of 100 μL/well is left. The plate is sealed using an adhesive PCR foil. • 4. Imaging. The bottom of the plate is cleaned with 70% ethanol and then imaged using the InCell 1000 automated epifluorescence microscope. 20× magnification is used and 4 different areas (fields) are imaged per well, this typically captures a total of around 400 cells per well. Hoechst33342 images are acquired using an excitation of 360 nm (D360_40x filter), an emission of 460 nm (HQ460_40M filter) and an exposure time of 150 ms. GFP images are acquired using an excitation of 475 nm (S475_20x filter), an emission of 535 nm (HQ535_50M filter) and an exposure time of 1 s. mCherry images are acquired using an excitation of 535 nm (HQ535_50x filter), an emission of 620 nm (HQ620_60M filter) and an exposure time of 1 s. A quadruple band pass mirror is used for all images. • 5. Image analysis. The InCell Analysis software is used to analyze the images using the Multi Target Analysis algorithm. First, nuclei are detected in the Hoechst33342 image using top-hat segmentation and a minimal nuclear area of 50 μm^2. Cells are defined using a collar of 10 μm around the nuclei. Second, puncta (organelles) are identified in the mCherry image inside the cells using multi-top-hat segmentation. Third, the mask of the mCherry puncta is transferred onto the GFP image. Fourth, the GFP fluorescence intensity inside the mCherry puncta mask is measured (reference intensity). • 6. The ‘organelles’ parameter reflects mCherry-positive puncta of the mCherry-GFP-LC3 reporter and is used to calculate ‘LC3 puncta/cell’. […]

Test [1] relates to cellular mTOR kinase activity (phosphorylation of Thr 389 of S6K1) in TSC1-/- MEFs. As to the kind of experiment: Test 2: Cellular mTOR assay (P-P70S6K T389 Surefire). In kind it is cell-based. The conditions noted are these: Mus musculus. The protocol:
Test 2: Cellular mTOR Assay
30 μl are added per well to a 384 well-plate using a Multidrop instrument (Thermo scientific), resulting in 4000 cells/well. The plates are incubated at 37° C./5% CO2 for 20 hours (to allow for settling and adherance to the surface).
Eight 3-fold serial dilutions of test-compounds (beginning at 1.8 mM) are prepared in 90% DMSO and compiled on 384 well master plates (Greiner). A pan-pPI3K/mTOR inhibitor (0.8 mM of 8-(6-methoxy-pyridin-3-yl)-3-methyl-1-(4-piperazin-1-yl-3-trifluoromethyl-phenyl)-1,3-dihydro-imidazo[4,5-c]quinolin-2-one in 90% DMSO) is added to the wells for the low control. 90% DMSO is added to the wells for the high controls. Compounds are provided as 250 nl shots (Hummingbird) in 384 well-polypropylene microplates (compound plates). 50 μl of growth medium is added to the compound plates (dilution 1:200) with the Multidrop. After shaking (1 min at 2000 rpm), 10 μl of the first dilution is then transferred to the cell plate with a Matrix Plate Mate 2×3 pipettor (final dilution 1:4). After 1 hour of treatment, medium is removed from the plate and 20 μl of Surefire lysis buffer is added per well with the Multidrop.
Cell lysates are frozen for 15 minutes, thawed with shaking and transferred to the experimental 384 well-Proxiplate (5 μl/well) for the P-P70S6K (T389) Surefire assay (Perkin Elmer #TGR70S50). The first mix is composed of the reaction buffer (containing the specific antibody), the activation buffer and the acceptor beads (40 vol, 10 vol and 1 vol respectively). 5 μl per well is added to the lysates with a Zephyr® SPE Workstation (Caliper Life Sciences) and incubated for 2 hours with shaking at room temperature. After this incubation time, the second mix of dilution buffer and donor beads (20 vol and 1 vol respectively) is added to the plate with the same instrument (2 μl/well). After 2 hours, the plate can be read with an EnVision® Multilabel Reader (Perkin Elmer). Since the beads are light sensitive, their transfer and incubation is executed in a dark room (greenlight).
The raw data is used to generate dose response curves for test compounds and IC50 values calculated therefrom.

The next test concerns the target recombinant human mTOR (Homo sapiens (Human), UniProt P42345). As to the kind of experiment: Test 1: mTOR ATP-binding assay based on TR-FRET. The conditions noted are these: GST-tagged truncated human mTOR, tracer-314, TR-FRET. As for the experimental part:
Test 1: mTOR ATP-Binding Assay Based on TR-FRET for Recombinant Human mTOR
2. The final volume of the assay is 10 μL and the order of addition is as follows:
50 nL of compounds dilution;
Incubated for 60 minutes at room temperature.
TR-FRET measured in Biotek Synergy2 reader at: • Excitation 340 nm/emission 665 nm • Excitation 340 nm/emission 620 nm
The following final concentrations are used:
1 nM Europium anti-GST antibody;
The following controls are used:
3. IC50 determinations may be performed as follows:
The Emission ratio is converted to percentage of inhibition for each compound concentration. IC50 values are calculated by fitting a sigmoidal dose-response curve to a plot of assay readout over compound concentration. All fits and analysis are performed with the program XLfit4 (ID Business Solutions, Guildford, UK).
Background: Time-resolved FRET reads energy transfer from a long-lived donor to a nearby acceptor.

Where [2] appears, read: TSC1-/- MEFs, 1 hour treatment, P-P70S6K (T389), read-out: Test 2: T389 cellular assay IC50.
The mark [3] stands for this setting: 1 h, read-out: Test 2: T389 cellular assay IC50 (nM).

recombinant human mTOR, sequence (P42345 1360-2549): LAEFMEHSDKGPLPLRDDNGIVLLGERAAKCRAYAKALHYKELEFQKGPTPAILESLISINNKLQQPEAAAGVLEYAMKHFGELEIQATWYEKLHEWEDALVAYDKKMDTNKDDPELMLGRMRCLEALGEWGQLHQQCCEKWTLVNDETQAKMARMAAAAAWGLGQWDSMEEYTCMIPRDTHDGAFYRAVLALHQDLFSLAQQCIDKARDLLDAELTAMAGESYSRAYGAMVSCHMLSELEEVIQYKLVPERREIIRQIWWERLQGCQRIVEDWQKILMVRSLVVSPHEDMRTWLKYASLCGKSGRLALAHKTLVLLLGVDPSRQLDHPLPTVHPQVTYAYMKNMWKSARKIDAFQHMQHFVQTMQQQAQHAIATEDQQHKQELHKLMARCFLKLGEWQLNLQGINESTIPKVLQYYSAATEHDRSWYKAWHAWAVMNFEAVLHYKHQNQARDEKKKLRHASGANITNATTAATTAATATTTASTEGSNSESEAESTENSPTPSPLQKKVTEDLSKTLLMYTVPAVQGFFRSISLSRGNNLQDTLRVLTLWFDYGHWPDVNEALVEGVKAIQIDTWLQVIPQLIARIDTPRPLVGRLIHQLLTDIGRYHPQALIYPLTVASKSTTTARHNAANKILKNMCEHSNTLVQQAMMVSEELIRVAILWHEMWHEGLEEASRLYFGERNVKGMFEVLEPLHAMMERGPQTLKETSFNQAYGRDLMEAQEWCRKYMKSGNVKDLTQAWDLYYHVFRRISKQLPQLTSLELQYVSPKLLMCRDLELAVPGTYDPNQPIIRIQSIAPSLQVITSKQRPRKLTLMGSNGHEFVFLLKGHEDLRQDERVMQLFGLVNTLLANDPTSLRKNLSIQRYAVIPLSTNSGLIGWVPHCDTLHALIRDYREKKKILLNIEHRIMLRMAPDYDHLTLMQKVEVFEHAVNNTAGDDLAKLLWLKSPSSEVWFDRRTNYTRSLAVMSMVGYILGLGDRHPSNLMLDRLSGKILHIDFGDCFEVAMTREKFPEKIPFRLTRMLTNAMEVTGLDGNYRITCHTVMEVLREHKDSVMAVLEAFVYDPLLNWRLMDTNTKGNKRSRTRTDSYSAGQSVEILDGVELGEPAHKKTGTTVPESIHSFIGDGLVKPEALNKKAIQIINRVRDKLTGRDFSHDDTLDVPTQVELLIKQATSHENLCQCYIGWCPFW

Usually EC50 stands for the midpoint of the concentration-response curve. Read a high EC50 as weaker potency. With `C[C@@H]1COCCN1c1nc(N2C3CCC2CC(O)C3)nc2[nH]c(-c3cccc4[nH]ccc34)nc12` (stereo partly drawn) [Example 14, 8-[8-(1H-Indol-4-yl)-6-((R)-3-methyl-morpholin-4-yl)-9H-purin-2-yl]-8-aza-bicyclo[3.2.1]octan-3-ol], the EC50 in the test on H4 mCherry-GFP-LC3 cells was 855 nM.

Broadly, the IC50 is the point on the concentration scale where inhibition reaches its midpoint. For the compound `C[C@H]1COCCN1c1nc(N2CCOC[C@@H]2C)c2nc(-c3ccccn3)[nH]c2n1` [Example 8, 2,6-Bis-((S)-3-methyl-morpholin-4-yl)-8-pyridin-2-yl-9H-purine], in the test on H4 mCherry-GFP-LC3 cells, the “Test 3: Autophagy EC50 (nM)” value is “n.m”. In addition, the IC50 in test [1] (setting [2]) stood at 806 nM; on recombinant human mTOR, 1030 nM.

Regarding `C[C@@H]1COCCN1c1nc(N2CCN(C3COC3)CC2)nc2[nH]c(-c3cccc4[nH]ccc34)nc12` [Example 18, 8-(1H-Indol-4-yl)-6-((R)-3-methyl-morpholin-4-yl)-2-(4-oxetan-3-yl-piperazin-1-yl)-9H-purine], in the test on H4 mCherry-GFP-LC3 cells, the “Test 3: Autophagy EC50 (nM)” value is recorded as “n.m”. In addition, the IC50 in test [1] (setting [2]) came to 249 nM; at recombinant human mTOR, 91 nM.

Compound `C[C@@H]1COCCN1c1nc(N2CCOC[C@@H]2C)nc2[nH]c(-c3cc[nH]n3)nc12` [Example 2, 2-((S)-3-Methyl-morpholin-4-yl)-6-((R)-3-methyl-morpholin-4-yl)-8-(1H-pyrazol-3-yl)-9H-purine] registered an EC50 in the test on H4 mCherry-GFP-LC3 cells (Homo sapiens) of 1050 nM. The figures for the IC50 (in test [1] (setting [2]); at recombinant human mTOR) were 131 nM and 104 nM, respectively.

In turn, `C[C@@H]1COCCN1c1nc(N2CCOC[C@H]2C)c2nc(-c3cc[nH]n3)[nH]c2n1` [Example 11, 2,6-Bis-((R)-3-methyl-morpholin-4-yl)-8-(1H-pyrazol-3-yl)-9H-purine] registered an EC50 with H4 mCherry-GFP-LC3 cells (Homo sapiens) of 1520 nM. Also, the IC50 in test [1] (setting [2]) stood at 190 nM; at recombinant human mTOR, 385 nM.

As to `C[C@H]1COCCN1c1nc(N2CCOC[C@@H]2C)c2nc(-c3ccc(N)nc3)[nH]c2n1` [Example 27, 5-[2,6-Bis-((S)-3-methyl-morpholin-4-yl)-9H-purin-8-yl]-pyridin-2-ylamine], in the test on H4 mCherry-GFP-LC3 cells (Homo sapiens), the EC50 was found to be 4740 nM. For the same compound, the IC50 in test [1] (setting [3]) turned out to be 1190 nM; on recombinant human mTOR it was 2410 nM.

On to `C[C@@H]1COCCN1c1nc(N2CC3COCC3C2)nc2[nH]c(-c3cccc4[nH]ccc34)nc12` (stereo partly drawn) [Example 19, 8-(1H-Indol-4-yl)-6-((R)-3-methyl-morpholin-4-yl)-2-(tetrahydro-furo[3,4-c]pyrrol-5-yl)-9H-purine], for which, in the test on H4 mCherry-GFP-LC3 cells (Homo sapiens), the response was half-maximal at 727 nM (EC50). The IC50 in test [1] (setting [3]) turned out to be 471 nM.

For the compound `C[C@@H]1COCCN1c1nc(N2CCC23CCOCC3)nc2[nH]c(-c3cccc4[nH]ccc34)nc12` [Example 24, 8-(1H-Indol-4-yl)-6-((R)-3-methyl-morpholin-4-yl)-2-(7-oxa-1-aza-spiro[3.5]non-1-yl)-9H-purine], in the test on H4 mCherry-GFP-LC3 cells (Homo sapiens), the response was half-maximal at 302 nM (EC50).

In the test on H4 mCherry-GFP-LC3 cells (Homo sapiens), `C[C@@H]1COCCN1c1nc(N2CC3(CCCOC3)C2)nc2[nH]c(-c3cccc4[nH]ccc34)nc12` [Example 17, 8-(1H-Indol-4-yl)-6-((R)-3-methyl-morpholin-4-yl)-2-(6-oxa-2-aza-spiro[3.5]non-2-yl)-9H-purine] had an EC50 of 663 nM.

With `C[C@@H]1COCCN1c1nc(N2C3CCC2CC(O)C3)nc2[nH]c(-c3cccc4[nH]ccc34)nc12` (stereo partly drawn) [Example 13, 8-[8-(1H-Indol-4-yl)-6-((R)-3-methyl-morpholin-4-yl)-9H-purin-2-yl]-8-aza-bicyclo[3.2.1]octan-3-ol], the EC50 in the test on H4 mCherry-GFP-LC3 cells (Homo sapiens) was 935 nM.

For the compound `CC(C)[C@@H]1COCCN1c1nc(N2CCOC[C@H]2C)c2nc(-c3cccc4[nH]ccc34)[nH]c2n1` [Example 21, 8-(1H-Indol-4-yl)-2-((R)-3-isopropyl-morpholin-4-yl)-6-((R)-3-methyl-morpholin-4-yl)-9H-purine], the figures for the half-inhibitory concentration (IC50) (in test [1] (setting [3]); on recombinant human mTOR) were 179 nM and 122 nM, respectively.

Regarding `C[C@@H]1COCCN1c1nc(N2CCC3COCC3C2)nc2[nH]c(-c3cccc4[nH]ccc34)nc12` (stereo partly drawn) [Example 20, 2-(Hexahydro-furo[3,4-c]pyridin-5-yl)-8-(1H-indol-4-yl)-6-((R)-3-methyl-morpholin-4-yl)-9H-purine], the “Test 3: Autophagy EC50 (nM)” value in the test on H4 mCherry-GFP-LC3 cells is given as “n.m”.

Take `C[C@@H]1COCCN1c1nc(N2CCO[C@H](CO)C2)nc2[nH]c(-c3cccc4[nH]ccc34)nc12` [Example 25, {(S)-4-[8-(1H-Indol-4-yl)-6-((R)-3-methyl-morpholin-4-yl)-9H-purin-2-yl]-morpholin-2-yl}-methanol]: the IC50 in test [1] (setting [3]) came to 1930 nM; on recombinant human mTOR it was 380 nM.

Turning to `C[C@@H]1COCCN1c1nc(N2CCOC[C@@H]2C)nc2[nH]c(-c3cc(F)cc4[nH]ccc34)nc12` [Example 5, 8-(6-Fluoro-1H-indol-4-yl)-2-((S)-3-methyl-morpholin-4-yl)-6-((R)-3-methyl-morpholin-4-yl)-9H-purine], the IC50 amounted to 122 nM in test [1] (setting [2]) and 21 nM at recombinant human mTOR.

As for `c1ccc(-c2nc3c(N4CCOCC4)nc(N4CCOCC4)nc3[nH]2)nc1` [Example 9, 2,6-Di-morpholin-4-yl-8-pyridin-2-yl-9H-purine], the IC50 on recombinant human mTOR amounted to 860 nM.

Consider `C[C@@H]1COCCN1c1nc(N2CCO[C@@H](CO)C2)nc2[nH]c(-c3cccc4[nH]ccc34)nc12` [Example 26, {(R)-4-[8-(1H-Indol-4-yl)-6-((R)-3-methyl-morpholin-4-yl)-9H-purin-2-yl]-morpholin-2-yl}-methanol], for which the figures for the IC50 (in test [1] (setting [3]); on recombinant human mTOR) were 318 nM and 67 nM, respectively.

The values are drawn from patent US9334271B2, “Purine derivatives and their use in the treatment of disease” (Novarits AG, priority 2012, dated 2016).
